According to US20120149694A1, “Substituted piperidines” (BAYER PHARMA AKTIENGESELLSCHAFT, priority 2009, published 2012):
pIC50: −log10 of the molar value.

Target: T1, human protease activated receptor 1 (PAR-1) (Homo sapiens, UniProt P25116)
T1 construct: the cell stably expresses the endogenous human PAR-1 receptor; endogenous in cells; host or cells: HEK293-derived recombinant cell line expressing mitochondrial aequorin
T1 sequence (P25116 22-425): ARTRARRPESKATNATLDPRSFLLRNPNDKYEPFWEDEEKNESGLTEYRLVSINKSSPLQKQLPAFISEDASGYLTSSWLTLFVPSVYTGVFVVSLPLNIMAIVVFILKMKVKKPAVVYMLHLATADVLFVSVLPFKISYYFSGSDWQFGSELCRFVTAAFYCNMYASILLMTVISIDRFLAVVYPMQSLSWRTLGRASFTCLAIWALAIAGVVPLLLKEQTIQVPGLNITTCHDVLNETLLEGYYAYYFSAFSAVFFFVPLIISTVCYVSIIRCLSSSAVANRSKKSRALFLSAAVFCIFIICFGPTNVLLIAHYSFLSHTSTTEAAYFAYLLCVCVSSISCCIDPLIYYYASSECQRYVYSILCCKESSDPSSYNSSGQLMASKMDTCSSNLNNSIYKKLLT
Experiment: Cellular functional in vitro test (PAR-1 antagonism, aequorin luminescence calcium readout)
Assay type: cell-based
Conditions: recombinant HEK293-derived aequorin cell line with endogenous PAR-1; PAR-1 agonist added at its EC50, 5 min after test substance
Source text: A recombinant cell line is used to identify antagonists of the human protease activated receptor 1 (PAR-1) and to quantify the activity of the substances described herein. The cell is originally derived from a human embryonal kidney cell (HEK293; ATCC: American Type Culture Collection, Manassas, Va. 20108, USA). The test cell line constitutively expresses a modified form of the calcium-sensitive photoprotein aequorin which, after reconstitution with the cofactor coelenterazine, emits light when the free calcium concentration in the inner mitochondrial compartment is increased (Rizzuto R, Simpson A W, Brini M, Pozzan T.; Nature 1992, 358, 325-327). Additionally, the cell stably expresses the endogenous human PAR-1 receptor and the endogenous purinergic receptor P2Y2. The resulting PAR-1 test cell responds to stimulation of the endogenous PAR-1 or P2Y2 receptor with an intracellular release of calcium ions, which can be quantified through the resulting aequorin luminescence with a suitable luminometer (Milligan G, Marshall F, Rees S, Trends in Pharmacological Sciences 1996, 17, 235-237).
For the testing of the substance specificity, the effect thereof after activation of the endogenous PAR-1 receptor is compared with the effect after activation of the endogenous purinergic P2Y2 receptor which utilizes the same intracellular signal path.
Test procedure: The cells are plated out two days (48 h) before the test in culture medium (DMEM F12, supplemented with 10% FCS, 2 mM glutamine, 20 mM HEPES, 1.4 mM pyruvate, 0.1 mg/ml gentamycin, 0.15% Na bicarbonate; BioWhittaker Cat.# BE04-687Q; B-4800 Verviers, Belgium) in 384-well microtitre plates and kept in a cell incubator (96% atmospheric humidity, 5% v/v CO2, 37° C.). On the day of the test, the culture medium is replaced by a tyrode solution (in mM: 140 sodium chloride, 5 potassium chloride, 1 magnesium chloride, 2 calcium chloride, 20 glucose, 20 HEPES), which additionally contains the cofactor coelenterazine (25 μM) and glutathione (4 mM), and the microtitre plate is then incubated for a further 3-4 hours. The test substances are then pipetted onto the microtitre plate, and 5 minutes after the transfer of the test substances into the wells of the microtitre plate the plate is transferred into the luminometer, a PAR-1 agonist concentration which corresponds to EC50 is added and the resulting light signal is immediately measured in the luminometer. To distinguish an antagonist substance action from a toxic action, the endogenous purinergic receptor is immediately subsequently activated with agonist (ATP, final concentration 10 μM) and the resulting light signal is measured.

Row | SMILES | pIC50
1 | CC(C)(C)C(=O)NCC1CC(c2ccc(C(F)(F)F)cc2)CN(C(=O)N2CCOCC2)C1 (racemic) [Example 1, 2,2-Dimethyl-N-({1-(morpholin-4-ylcarbonyl)-5-[4-(trifluoromethyl)phenyl]piperidin-3-yl}methyl)propaneamide] | 6.75
2 | O=C(CC1CC(c2ccc(C(F)(F)F)cc2)CN(C(=O)N2CCOCC2)C1)Nc1ccccc1 (racemic) [Example 15, 2-{1-(Morpholin-4-ylcarbonyl)-5-[4-(trifluoromethyl)phenyl]piperidin-3-yl}-N-phenylacetamide] | 7.25
3 | O=C(N1CCOCC1)N1CC(CSc2cccc(F)c2)CC(c2ccc(C(F)(F)F)cc2)C1 (racemic) [Example 40, (3-{[(3-Fluorophenyl)sulphanyl]methyl}-5-[4-(trifluoromethyl)phenyl]piperidin-1-yl)(morpholin-4-yl)methanone] | 8.52
4 | O=C(N1CCOCC1)N1CC(CS(=O)(=O)C2CCCC2)CC(c2ccc(C(F)(F)F)cc2)C1 (racemic) [Example 48, {3-[(Cyclopentylsulphonyl)methyl]-5-[4-(trifluoromethyl)phenyl]piperidin-1-yl}(morpholin-4-yl)methanone] | 7.62
5 | CS(=O)(=O)NCC1CC(c2ccc(C(F)(F)F)cc2)CN(C(=O)N2CCOCC2)C1 (single isomer, unassigned) [Example 6, N-({1-(Morpholin-4-ylcarbonyl)-5-[4-(trifluoromethyl)phenyl]piperidin-3-yl}methyl)methanesulphonamide] | 8.10
